The record followed here is patent US9226499B2, “Protected antimicrobial compounds for high temperature applications” (Dow Global Technologies LLC, priority 2010, dated 2016).

A short description of data set [1]: Analysis of glutaraldehyde release after heat-aging. The settings on record: sterile deionized water, molar equivalent of 2000 ppm glutaraldehyde; initial and heat-aged at 55° C. for 2 h or 24 h. The class given is physicochemical. The procedure:
Samples of the IPHA-adduct are analyzed for glutaraldehyde content. Samples are prepared in sterile deionized water at the molar equivalent of 2000 ppm glutaraldehyde. A standard of 500 ppm glutaraldehyde is also prepared. An initial measurement is taken just after sample preparation. Samples are then heat-aged at 55° C. for 2 h or 24 h and analyzed again. Glutaraldehyde concentration is measured directly via GC and after pre-column derivatization by HPLC.

Data set [2] concerns T. thermophilus. Description: Biocidal efficacy against thermophilic bacteria at 70° C., dilution to extinction. The class given is cell-based. Conditions: equivalent of 100 ppm glutaraldehyde, after 5 days with re-challenging. As to the method: b. Thermophilic Bacteria. A 48-72 hour old culture of T. thermophilus is pelleted by centrifuging at 2000 g and the pellet resuspended in 10 times the culture volume of buffer (PBS or carbonate-buffered synthetic freshwater). The suspension is distributed into 10 mL aliquots in glass screw-cap tubes. Each tube is then treated with glutaraldehyde or an adduct and incubated at 70° C. At indicated timepoints, cell density in each tube is measured via dilution to extinction by serially diluting a sample and plating dilutions on solid media.

For the compound `CC(C)/[N+]([O-])=C/CCC/C=[N+](\[O-])C(C)C` [IPHA-adduct, N,N′-(pentane-1,5-diylidene)bis(propan-2-amineoxide)], in data set [1], the “Glutaraldehyde concentration after pre-column derivatization by HPLC” value was “low levels of glutaraldehyde” and the “Glutaraldehyde concentration measured directly via GC” value is on record as “No glutaraldehyde is detected”.
As for `O=CCCCC=O` [glutaraldehyde], in data set [2], the “Control of bacterial levels after 5 days” value is recorded as “fails to control bacterial levels”.
